Experimental data published in patent US9944598B2, “Mono- or di-substituted indole derivatives as dengue viral replication inhibitors” (priority 2014, dated 2018).

Columns and labels:
[1] = test system: DENV-4 strain EDEN (SG/06K2270DK1/2005); assay: Tetravalent RT-qPCR assay Protocol A, serotype 4 EDEN; assay type: cell-based; conditions: Dengue virus, DENV4, 72 h, RT-qPCR serotype 4 EDEN, Vero cells, 3 days
Description: The antiviral activity of the compounds of the invention was tested against DENV-1 strain TC974#666 (NCPV), DENV-2 strain 16681, DENV-3 strain H87 (NCPV) and DENV-4 strains H241 (NCPV) and EDEN (SG/06K2270DK1/2005; GenBank accession number QG398256) in a RT-qPCR assay. Therefore, Vero cells were infected with either DENV-1, or -2, or -3, or -4 in the presence or absence of test compounds. At day 3 post-infection, the cells were lysed and cell lysates were used to prepare cDNA of both a viral target (the 3′UTR of DENV; table 2) and a cellular reference gene (β-actin, table 2). Subsequently, a duplex real time PCR was performed on a Lightcycler480 instrument. The generated Cp value is inversely proportional to the amount of RNA expression of these targets. Inhibition of DENV replication by a test compound result in a shift of Cp's for the 3′UTR gene. On the other hand, if a test compound is toxic to the cells, a similar effect on β-actin expression will be observed. The comparative ΔΔCp method is used to calculate EC50, which is based on the relative gene expression of the target gene (3′UTR) normalized with the cellular housekeeping gene (β-actin). In addition, CC50 values were determined based on the Cp values acquired for the housekeeping gene β-actin.
The culture medium consisted of minimal essential medium supplemented with 2% of heat-inactivated fetal calf serum, 0.04% gentamycin (50 mg/mL) and 2 mM of L-glutamine. Vero cells, obtained from ECACC, were suspended in culture medium and 75 μL/well was added in 96-well plates (10000 cells/well), which already contain the antiviral compounds. Typically, these plates contain a 4-fold serial dilution of 9 dilution steps of the test compound at 200 times the final concentration in 100% DMSO (500 nL; final concentration range: 25 μM-0.00038 μM). In addition, each plate contains wells which are assigned as virus controls (containing cells and virus in the absence of compound) and cell controls (containing cells in the absence of virus and compound). Once the cells were added in the plates, the plates were incubated in a fully humidified incubator (37° C., 5% CO2) until the next day. Then, DENV-1 strain TC974#666, DENV-2 strain 16681, DENV-3 strain H87 or DENV-4 strains H241 or EDEN were added. […] In parallel, 25 μL of culture medium was added to the cell controls. Next, the plates were incubated for 3 days in a fully humidified incubator (37° C., 5% CO2). After 3 days, the supernatant was removed from the wells and the cells were washed twice with ice-cold PBS (˜100 μL). The cell pellets within the 96-well plates were stored at −80° C. for at least 1 day. Next, RNA was extracted using the Cells-to-CT™ lysis kit, according to the manufacture's guideline (Applied Biosystems). The cell lysates can be stored at −80° C. or immediately used in the reverse transcription step.
In preparation of the reverse transcription step, mix A (table 3A) was prepared and 7.57 μL/well was dispensed in a 96-well plate. After addition of 5 μL of the cell lysates, a five minute denaturation step at 75° C. was performed (table 3B). Afterwards, 7.43 μL of mix B was added (table 3C) and the reverse transcription step was initiated (table 3D) to generate cDNA.
Finally, a RT-qPCR mix was prepared, mix C (table 4A), dispensed in 96-well LightCycler qPCR plates to which 3 μL of cDNA was added and the qPCR was performed according to the conditions in table 4B on a LightCycler 480.
Using the LightCycler software and an in-house LIMS system, dose response curves for each compound were calculated and the half maximal effective concentration (EC50) and the half maximal cytotoxic concentration (CC50) were determined (Tables 6-9).

[2] = in vitro; assay type: cell-based; conditions: African green monkey, CC50
Description: (§1) In parallel, the toxicity of the compounds was assessed on the same plates. Once the read-out for the eGFP signal was done, 10 μL of resazurin, a cell viability stain, was added to all wells of the 384-well plates. The resazurin assay is based on the reduction of the blue resazurin by NADH, produced by the cells, into the highly fluorescent product, resorufin. The formation of pink fluorescent resorufin is directly related to the number of viable cells in the well. The plates were incubated for an additional 5 hours in a fully humidified incubator (37° C., 5% CO2). Next, the plates were measured on an Infinite reader (Tecan) using an excitation wavelength of 530 nm. The half maximal cytotoxic concentration (CC50) was also determined, defined as the concentration required to reduce the resazurin conversion by 50% compared to that of the cell control wells (Table 1). Finally, the selectivity index (SI) is determined for the compounds, which is calculated as followed: SI=CC50/EC50.

[3] = Chiral stability at pH 7.4 (enantiomeric excess by Chiral SFC); assay type: physicochemical
Description: The chiral stability of Enantiomer 1A (R=OMe) was evaluated by determination of the enantiomeric excess (ee %) after incubation for 24 h and 48 h in a buffered solution at pH 7.4 at 40° C. and 60° C. To assess the influence of the methoxy-substituent of Enantiomer 1A (R=OMe) on the stability against racemization, the chiral stability of Enantiomer 1′A (R═H) was tested under the same conditions.
To this end, 5 μM buffered (pH=7.4) solutions of 1A and 1′A were prepared by mixing 25 μL of a 100 μM solution of 1A or 1′A in DMSO with 475 μL aqueous buffer pH 7.4. Samples were taken 24 h and 48 h after incubation at 40° C. and 60° C. The analytical samples were analyzed by Chiral SFC (MS detection) and the chiral purity was expressed as the enantiomeric excess (ee %=% enantiomer A−% enantiomer B).

[4] = test system: Vero cells; assay: in vitro; assay type: cell-based; conditions: African green monkey
Description: as §1

| SMILES | EC50 [1] | CC50 [2] | ee % ([3]; 5 μM buffered solution pH 7.4, 40° C., 24 h) | ee % ([3]; 5 μM buffered solution pH 7.4, 40° C., 48 h) | ee % ([3]; 5 μM buffered solution pH 7.4, 60° C., 24 h) | ee % ([3]; 5 μM buffered solution pH 7.4, 60° C., 48 h) | CC50 [4] |
| --- | --- | --- | --- | --- | --- | --- | --- |
| COc1cc(NC(C(=O)c2c[nH]c3cc(F)ccc23)c2ccc(Cl)cc2OC)cc(OCCO)c1 (single isomer, unassigned) [Compound 1A, 2-(4-chloro-2-methoxyphenyl)-1-(6-fluoro-1H-indol-3-yl)-2-((3-(2-hydroxyethoxy)-5-methoxyphenyl)amino)ethanone] | 0.0062 µM | 4.3 µM | 100% | 100% | 99% | 96% | – |
| COc1cc(NC(C(=O)c2c[nH]c3c(C)c(F)ccc23)c2ccc(Cl)cc2OC)cc(OCCO)c1 (single isomer, unassigned) [Compound 2A, 2-(4-chloro-2-methoxyphenyl)-1-(6-fluoro-7-methyl-1H-indol-3-yl)-2-((3-(2-hydroxyethoxy)-5-methoxyphenyl)amino)ethanone] | 0.0043 µM | 4.2 µM | – | – | – | – | – |
| COc1cc(NC(C(=O)c2c[nH]c3c(C)c(Cl)ccc23)c2ccc(Cl)cc2OC)cc(OCCO)c1 (single isomer, unassigned) [Compound 3A, 2-(4-chloro-2-methoxyphenyl)-1-(6-chloro-7-methyl-1H-indol-3-yl)-2-((3-(2-hydroxyethoxy)-5-methoxyphenyl)amino)ethanone] | 0.0029 µM | 4.5 µM | – | – | – | – | – |
| COc1cc(NC(C(=O)c2c[nH]c3cc(Cl)ccc23)c2ccc(Cl)cc2OC)cc(OCCO)c1 (single isomer, unassigned) [Compound 4A, 1-(6-chloro-1H-indol-3-yl)-2-(4-chloro-2-methoxyphenyl)-2-((3-(2-hydroxyethoxy)-5-methoxyphenyl)amino)ethanone] | 0.0052 µM | 4.9 µM | – | – | – | – | – |
| COc1cc(NC(C(=O)c2c[nH]c3cc(OC)ccc23)c2ccc(Cl)cc2OC)cc(OCCO)c1 (single isomer, unassigned) [Compound 5A, 2-(4-chloro-2-methoxyphenyl)-2-((3-(2-hydroxyethoxy)-5-methoxyphenyl)amino)-1-(6-methoxy-1H-indol-3-yl)ethanone] | 0.0046 µM | 5.9 µM | – | – | – | – | – |
| COc1cc(NC(C(=O)c2c[nH]c3cc(OC)c(C)cc23)c2ccc(Cl)cc2OC)cc(OCCO)c1 (single isomer, unassigned) [Compound 6A, 2-(4-chloro-2-methoxyphenyl)-2-((3-(2-hydroxyethoxy)-5-methoxyphenyl)amino)-1-(6-methoxy-5-methyl-1H-indol-3-yl)ethanone] | 0.0029 µM | 5.1 µM | – | – | – | – | – |
| COc1cc(NC(C(=O)c2c[nH]c3cc(OC)c(F)cc23)c2ccc(Cl)cc2OC)cc(OCCO)c1 (single isomer, unassigned) [Compound 7A, 2-(4-chloro-2-methoxyphenyl)-1-(5-fluoro-6-methoxy-1H-indol-3-yl)-2-((3-(2-hydroxyethoxy)-5-methoxyphenyl)amino)ethanone] | 0.0066 µM | 6.1 µM | – | – | – | – | – |
| COc1cc(NC(C(=O)c2c[nH]c3c(C)cc(F)cc23)c2ccc(Cl)cc2OC)cc(OCCO)c1 (single isomer, unassigned) [Compound 8A, 2-(4-chloro-2-methoxyphenyl)-1-(5-fluoro-7-methyl-1H-indol-3-yl)-2-((3-(2-hydroxyethoxy)-5-methoxyphenyl)amino)ethanone] | 0.0065 µM | 4.2 µM | – | – | – | – | – |
| COc1cc(NC(C(=O)c2c[nH]c3cc(F)c(F)cc23)c2ccc(Cl)cc2OC)cc(OCCO)c1 (single isomer, unassigned) [Compound 9A, 2-(4-chloro-2-methoxyphenyl)-1-(5,6-difluoro-1H-indol-3-yl)-2-((3-(2-hydroxyethoxy)-5-methoxyphenyl)amino)ethanone] | 0.0047 µM | 3.9 µM | – | – | – | – | 6.5 µM |
| COc1cc(NC(C(=O)c2c[nH]c3c(F)cc(C)cc23)c2ccc(Cl)cc2OC)cc(OCCO)c1 (single isomer, unassigned) [Compound 10A, 2-(4-chloro-2-methoxyphenyl)-1-(7-fluoro-5-methyl-1H-indol-3-yl)-2-((3-(2-hydroxyethoxy)-5-methoxyphenyl)amino)ethanone] | 0.0086 µM | 4.5 µM | – | – | – | – | – |
| COc1cc(NC(C(=O)c2c[nH]c3c(F)c(F)ccc23)c2ccc(Cl)cc2OC)cc(OCCO)c1 (single isomer, unassigned) [Compound 11B, 2-(4-chloro-2-methoxyphenyl)-1-(6,7-difluoro-1H-indol-3-yl)-2-((3-(2-hydroxyethoxy)-5-methoxyphenyl)amino)ethanone] | 0.0098 µM | – | – | – | – | – | 4.1 µM |
